The numbers were not newly measured in patent publication US11213539B2, “Use of ivermectin and brimonidine in the treatment and/or prevention of moderate to severe rosacea” (GALDERMA HOLDING SA, priority 2015, dated 2022), which cites them from elsewhere.

This data set concerns patients treated with brimonidine 0.33% gel. To be noted: brimonidine used alone; in a number of patients, in particular worsening of erythema (rebound).

Turning to `Brc1c(NC2=NCCN2)ccc2nccnc12` [brimonidine], the related adverse effects result was “excessive”.
